# According to ChEMBL document CHEMBL4118205, “Design, synthesis and biological evaluation of artemisinin derivatives containing fluorine atoms as anticancer agents” (Bioorg Med Chem Lett, 2018):
# Active and inactive are the calls of the source. No cut-off for these calls is given here.
# How the values were obtained:
# U-87 MG = test: Cytotoxicity against human U87 cells assessed as reduction in cell viability after 72 hrs by MTT assay; format: functional, cell-based, U-87MG ATCC
# SH-SY5Y = test: Cytotoxicity against human SH-SY5Y cells assessed as reduction in cell viability after 72 hrs by MTT assay; format: functional, cell-based
# MCF7 [1] = test: Cytotoxicity against human MCF7 cells assessed as reduction in cell viability after 72 hrs by MTT assay; format: functional, cell-based; details: MCF7, 72 h
# MDA-MB-231 = test: Cytotoxicity against human MDA-MB-231 cells assessed as reduction in cell viability after 72 hrs by MTT assay; format: functional, cell-based; details: MDA-MB-231, 72 h
# A549 = test: Cytotoxicity against human A549 cells assessed as reduction in cell viability after 72 hrs by MTT assay; format: functional, cell-based; details: A549, 72 h
# A-375 = test: Cytotoxicity against human A375 cells assessed as reduction in cell viability after 72 hrs by MTT assay; format: functional, cell-based; details: A-375, 72 h
# L02 = test: Cytotoxicity against human L02 cells assessed as reduction in cell viability after 72 hrs by MTT assay; format: functional, cell-based; details: L02, 72 h
# MCF7 [2] = test: Induction of apoptosis in human MCF7 cells assessed as early apoptotic cells at 1 uM after 48 hrs by Annexin-V FITC/propidium iodide staining based flow cytometry (reference value: 0.50%); format: functional
# MCF7 [3] = test: Induction of apoptosis in human MCF7 cells assessed as viable cells at 1 uM after 48 hrs by Annexin-V FITC/propidium iodide staining based flow cytometry (reference value: 88.59%); format: functional; details: MCF7, 48 h, read-out: Activity
# MCF7 [4] = test: Induction of apoptosis in human MCF7 cells assessed as late apoptotic cells at 5 uM after 48 hrs by Annexin-V FITC/propidium iodide staining based flow cytometry (reference value: 6.22%); format: functional
# MCF7 [5] = test: Induction of apoptosis in human MCF7 cells assessed as early apoptotic cells at 2.5 uM after 48 hrs by Annexin-V FITC/propidium iodide staining based flow cytometry (reference value: 0.50%); format: functional
# MCF7 [6] = test: Induction of apoptosis in human MCF7 cells assessed as late apoptotic cells at 2.5 uM after 48 hrs by Annexin-V FITC/propidium iodide staining based flow cytometry (reference value: 6.22%); format: functional
# MCF7 [7] = test: Induction of apoptosis in human MCF7 cells assessed as viable cells at 2.5 uM after 48 hrs by Annexin-V FITC/propidium iodide staining based flow cytometry (reference value: 88.59%); format: functional; details: MCF7, 48 h, read-out: Activity
# MCF7 [8] = test: Induction of apoptosis in human MCF7 cells assessed as early apoptotic cells at 5 uM after 48 hrs by Annexin-V FITC/propidium iodide staining based flow cytometry (reference value: 0.50%); format: functional
# MCF7 [9] = test: Induction of apoptosis in human MCF7 cells assessed as viable cells at 5 uM after 48 hrs by Annexin-V FITC/propidium iodide staining based flow cytometry (reference value: 88.59%); format: functional; details: MCF7, 48 h, read-out: Activity
# MCF7 [10] = test: Induction of apoptosis in human MCF7 cells assessed as early apoptotic cells at 10 uM after 48 hrs by Annexin-V FITC/propidium iodide staining based flow cytometry (reference value: 0.50%); format: functional
# MCF7 [11] = test: Induction of apoptosis in human MCF7 cells assessed as late apoptotic cells at 10 uM after 48 hrs by Annexin-V FITC/propidium iodide staining based flow cytometry (reference value: 6.22%); format: functional
# MCF7 [12] = test: Induction of apoptosis in human MCF7 cells assessed as necrotic cells at 10 uM after 48 hrs by Annexin-V FITC/propidium iodide staining based flow cytometry (reference value: 4.69%); format: functional
# MCF7 [13] = test: Induction of apoptosis in human MCF7 cells assessed as viable cells at 10 uM after 48 hrs by Annexin-V FITC/propidium iodide staining based flow cytometry (reference value: 88.59%); format: functional; details: MCF7, 48 h, read-out: Activity
# MCF7 [14] = test: Induction of apoptosis in human MCF7 cells assessed as early apoptotic cells at 20 uM after 48 hrs by Annexin-V FITC/propidium iodide staining based flow cytometry (reference value: 0.50%); format: functional
# MCF7 [15] = test: Induction of apoptosis in human MCF7 cells assessed as late apoptotic cells at 20 uM after 48 hrs by Annexin-V FITC/propidium iodide staining based flow cytometry (reference value: 6.22%); format: functional
# MCF7 [16] = test: Induction of apoptosis in human MCF7 cells assessed as necrotic cells at 20 uM after 48 hrs by Annexin-V FITC/propidium iodide staining based flow cytometry (reference value: 4.69%); format: functional
# MCF7 [17] = test: Induction of apoptosis in human MCF7 cells assessed as viable cells at 20 uM after 48 hrs by Annexin-V FITC/propidium iodide staining based flow cytometry (reference value: 88.59%); format: functional; details: MCF7, 48 h, read-out: Activity
# MCF7 [18] = test: Induction of apoptosis in human MCF7 cells after 48 hrs by Annexin-V FITC/propidium iodide staining based flow cytometry; format: functional, cell-based
# MCF7 [19] = test: Cell cycle arrest in human MCF7 cells assessed as accumulation at S phase at 0.5 uM after 48 hrs by propidium iodide staining based flow cytometry (reference value: 41.55%); format: functional
# MCF7 [20] = test: Induction of apoptosis in human MCF7 cells assessed as morphological alteration up to 20 uM after 48 hrs by Hoechst 33258 staining based fluorescence microscopic method; format: functional, cell-based
# MCF7 [21] = test: Induction of apoptosis in human MCF7 cells assessed as granular apoptotic body formation up to 20 uM after 48 hrs by Hoechst 33258 staining based fluorescence microscopic method; format: functional, cell-based
# MCF7 [22] = test: Cell cycle arrest in human MCF7 cells assessed as accumulation at G1 phase at 0.5 uM after 48 hrs by propidium iodide staining based flow cytometry (reference value: 45.21%); format: functional
# MCF7 [23] = test: Cell cycle arrest in human MCF7 cells assessed as accumulation at G2 phase at 0.5 uM after 48 hrs by propidium iodide staining based flow cytometry (reference value: 13.24%); format: functional
# MCF7 [24] = test: Cell cycle arrest in human MCF7 cells assessed as accumulation at G1 phase at 1 uM after 48 hrs by propidium iodide staining based flow cytometry (reference value: 45.21%); format: functional
# MCF7 [25] = test: Cell cycle arrest in human MCF7 cells assessed as accumulation at G1 phase at 2.5 uM after 48 hrs by propidium iodide staining based flow cytometry (reference value: 45.21%); format: functional
# MCF7 [26] = test: Cell cycle arrest in human MCF7 cells assessed as accumulation at S phase at 2.5 uM after 48 hrs by propidium iodide staining based flow cytometry (reference value: 41.55%); format: functional
# MCF7 [27] = test: Cell cycle arrest in human MCF7 cells assessed as accumulation at G2 phase at 2.5 uM after 48 hrs by propidium iodide staining based flow cytometry (reference value: 13.24%); format: functional
# MCF7 [28] = test: Cell cycle arrest in human MCF7 cells assessed as accumulation at G1 phase at 5 uM after 48 hrs by propidium iodide staining based flow cytometry (reference value: 45.21%); format: functional
# MCF7 [29] = test: Cell cycle arrest in human MCF7 cells assessed as accumulation at S phase at 10 uM after 48 hrs by propidium iodide staining based flow cytometry (reference value: 41.55%); format: functional
# MCF7 [30] = test: Cell cycle arrest in human MCF7 cells assessed as accumulation at G2 phase at 10 uM after 48 hrs by propidium iodide staining based flow cytometry (reference value: 13.24%); format: functional
# MCF7 [31] = test: Cell cycle arrest in human MCF7 cells assessed as accumulation at G1 phase after 48 hrs by propidium iodide staining based flow cytometry; format: functional
compound,measurement,setting,value
C[C@H]1[C@H](N2CCN(C(=O)Nc3ccc(OC(F)(F)F)cc3)CC2)O[C@@H]2O[C@@]3(C)CC[C@H]4[C@H](C)CC[C@@H]1[C@@]24OO3,IC50,U-87 MG,19.7 µM
same,IC50,SH-SY5Y,3.6 µM
same,IC50,MCF7 [1],2.1 µM
same,IC50,MDA-MB-231,8.4 µM
same,IC50,A549,19.9 µM
same,IC50,A-375,3.4 µM
same,IC50,L02,6.7 µM
same,Activity,MCF7 [2],0.48%
same,viability at 1 µM,MCF7 [3],84.4%
same,Activity,MCF7 [4],33.62%
same,Activity,MCF7 [5],0.66%
same,Activity,MCF7 [6],19.17%
same,viability at 2.5 µM,MCF7 [7],59.5%
same,Activity,MCF7 [8],1.38%
same,viability at 5 µM,MCF7 [9],43.5%
same,Activity,MCF7 [10],0.8%
same,Activity,MCF7 [11],53.36%
same,Activity,MCF7 [12],17.18%
same,viability at 10 µM,MCF7 [13],28.7%
same,Activity,MCF7 [14],4.78%
same,Activity,MCF7 [15],68.8%
same,Activity,MCF7 [16],10.18%
same,viability at 20 µM,MCF7 [17],16.2%
same,Activity,MCF7 [18],Dose-dependent effect
same,Activity,MCF7 [19],39.72%
same,Activity,MCF7 [20],Active
same,Activity,MCF7 [21],Active
same,Activity,MCF7 [22],47.95%
same,Activity,MCF7 [23],12.33%
same,Activity,MCF7 [24],56.57%
same,Activity,MCF7 [25],64.46%
same,Activity,MCF7 [26],26.36%
same,Activity,MCF7 [27],9.18%
same,Activity,MCF7 [28],76.68%
same,Activity,MCF7 [29],9.2%
same,Activity,MCF7 [30],7.3%
same,Activity,MCF7 [31],Dose-dependent effect
